SMILES strings stand for the structures. Like-named read-outs stand apart in the source and are kept apart here.

For test [1], the target named is T1, human PPARγ2 (Homo sapiens, UniProt P37231).
T1 construct: the amino acids 182 to 505 of human PPARγ2; expressed in transfected cells; host or cells: COS7 cells
The experiment in a line: PPARγ activation activity, Gal4 chimera luciferase transfection assay using COS7 cells. The conditions noted are these: for EC50: Gal4-human PPARγ2 LBD chimera, luciferase reporter, 16 hours; for Emax: COS-7, 16 h, maximum activity strength relative to the maximum activity of rosiglitazone, read-out: % MAX vs Rosiglitazone; for maximum activity compared with telmisartan: maximum PPARγ activity, telmisartan 30 to 50% of rosiglitazone under the same condition. Format: cell-based. The method, then:
The agonistic activity of the compounds of the invention on PPARγ was measured based on the transfection assay using COS7 cells (DS Pharma Biomedical Co., Ltd., Osaka, Japan), which are the cell line derived from the kidney of the African green monkey. COS7 cells were cultured under 5% CO2 concentration, and DMEM medium containing 10% fetal bovine serum, glutamic acid, and antibiotics was used as a medium.
As an expression vector, a chimera in which DNA binding domain of Gal4, which is a yeast transcription factor, and ligand binding domain of human PPAR^γ2 are fused, i.e., a fused product between the amino acids 1 to 147 of Gal4 transcription factor and the amino acids 182 to 505 of human PPARγ2, was used. Furthermore, as a reporter vector, a firefly luciferase containing five copies of Gal4 recognition sequence in the promoter region was used. Plasmid transfection to the cells was performed according to a method which uses jetPEI (trade name, manufactured by Funakoshi Co., Ltd., Tokyo, Japan). Furthermore, β-galactosidase expression vector was employed as an internal standard.
After the transfection of the cells, the medium was replaced with a DMEM medium (containing 1% serum) added with the compound, and the cells were further cultured for 16 hours. After that, the luciferase activity and β-galactosidase activity in the cell lysis solution were measured.
For the present test, dimethyl sulfoxide (DMSO) was used for dissolution and dilution of the test compounds, and during the cell treatment, the DMSO concentration in DMEM medium (containing 1% serum) was adjusted to 0.1%. As a positive compound, rosiglitazone (trade name, manufactured by ALEXIS Corporation, Switzerland) was used. […] The 50% effective concentration of the test compound (EC50, 50% effect concentration) was calculated by using SAS Preclinical Package Ver5.0 (trade name, manufactured by SAS institute Japan Co., Tokyo, Japan), which is a statistical analysis program.
(A reporter such as luciferase makes a cellular process visible.)

Test [2] addresses T2, angiotensin II type 1 receptor (Oryctolagus cuniculus, UniProt P34976).
T2 construct: By using a specimen of isolated rabbit blood vessels; from tissue; host or cells: rabbit thoracic aorta ring (New Zealand White, male)
T2 sequence (P34976 1-359): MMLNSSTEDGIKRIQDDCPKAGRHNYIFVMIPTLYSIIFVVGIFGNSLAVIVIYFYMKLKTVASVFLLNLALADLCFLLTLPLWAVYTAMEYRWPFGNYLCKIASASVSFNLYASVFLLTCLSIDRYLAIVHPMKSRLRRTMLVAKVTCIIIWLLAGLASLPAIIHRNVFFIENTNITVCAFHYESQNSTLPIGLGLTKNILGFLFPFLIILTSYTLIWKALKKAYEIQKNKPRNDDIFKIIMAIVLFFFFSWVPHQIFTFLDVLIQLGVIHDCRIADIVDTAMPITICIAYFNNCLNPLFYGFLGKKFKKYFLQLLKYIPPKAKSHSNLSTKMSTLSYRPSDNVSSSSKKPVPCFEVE
The experiment in a line: Angiotensin II antagonistic activity in isolated rabbit blood vessels. The note with it: angiotensin II (10 nM)-induced contraction of rabbit thoracic aorta ring. On the procedure:
By using a specimen of isolated rabbit blood vessels, antagonistic activity of the compounds of the invention against angiotensin II type 1 receptor was estimated from a dose-response curve of angiotensin II-induced blood vessel contraction.
During the measurement, the inside temperature of the magnus bath was maintained at 37° C. and the bath was continuously ventilated with a sufficient amount of mixed gas (95% O2 and 5% CO2). The angiotensin II-induced contraction was converted into a relative value (%) that is based on the angiotensin II (10 nM)-induced contraction in the absence of the compounds of each example. From the concentration-response curve obtained therefrom, 50% inhibition concentration (IC50 value) was calculated by using SAS Preclinical Package Ver5.0 (trade name, manufactured by SAS institute Japan Co., Tokyo, Japan), which is a statistical analysis program.

T1 sequence (P37231 182-505): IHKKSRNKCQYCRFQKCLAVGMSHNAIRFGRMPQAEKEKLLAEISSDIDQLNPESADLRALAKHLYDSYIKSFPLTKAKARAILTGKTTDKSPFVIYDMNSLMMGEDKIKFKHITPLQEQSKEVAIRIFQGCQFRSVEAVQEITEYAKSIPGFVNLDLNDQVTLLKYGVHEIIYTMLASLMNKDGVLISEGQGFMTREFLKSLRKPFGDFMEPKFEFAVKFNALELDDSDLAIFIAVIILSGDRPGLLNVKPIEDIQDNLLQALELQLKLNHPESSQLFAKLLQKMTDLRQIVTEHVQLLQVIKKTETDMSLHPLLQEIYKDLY
T1 sequence (P04386 1-147 partner limits assumed): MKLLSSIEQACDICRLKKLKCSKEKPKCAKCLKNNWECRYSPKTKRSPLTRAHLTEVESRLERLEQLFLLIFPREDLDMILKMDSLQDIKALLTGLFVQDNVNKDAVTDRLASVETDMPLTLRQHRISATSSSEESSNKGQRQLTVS

On to `CCCCc1nc(C)n(-c2ncc(Br)cn2)c(=O)c1Cc1ccc(-c2ccccc2-c2nnn[nH]2)cc1` [Example 16, 5-{[2′-(1H-tetrazol-5-yl)biphenyl-4-yl]methyl}-3-(5-bromopyrimidin-2-yl)-6-butyl-2-methylpyrimidin-4 (3H)-one], for which, in test [1] (COS7 cells, read-out: EC50), the EC50 (in general, the concentration at which the effect is half-maximal) is 2.41 µM. Also, the Emax in test [1] (COS7 cells) was 35.5%. It took 0.014 µM to reach half-maximal inhibition in test [2] (IC50).
On to `CCCCc1nc(C)n(-c2ncc(OCC)cn2)c(=O)c1Cc1ccc(-c2ccccc2-c2nnn[nH]2)cc1` [Example 21, 5-{[2′-(1H-tetrazol-5-yl)biphenyl-4-yl]methyl}-6-butyl-3-(5-ethoxypyrimidin-2-yl)-2-methylpyrimidin-4 (3H)-one], for which the EC50 in test [1] (COS7 cells, read-out: EC50) was found to be 1.59 µM. The IC50 (as a rule, the concentration that gives 50% inhibition) in test [2] was 0.017 µM.
As for `CCCCc1nc(C)n(-c2cccc(Br)n2)c(=O)c1Cc1ccc(-c2ccccc2-c2nnn[nH]2)cc1` [Example 8, 5-{[2′-(1H-tetrazol-5-yl)biphenyl-4-yl]methyl}-3-(6-bromopyridin-2-yl)-6-butyl-2-methylpyrimidin-4(3H)-one], the EC50 in test [1] (COS7 cells, read-out: EC50) was determined as 0.88 µM. Further, the Emax in test [1] (COS7 cells) was 27.7%. The same molecule gave an IC50 in test [2] of 0.395 µM.
In the case of `CCCCc1nc(C)n(-c2ccc(C(F)(F)F)cn2)c(=O)c1Cc1ccc(-c2ccccc2-c2nnn[nH]2)cc1` [Example 11, 5-{[2′-(1H-tetrazol-5-yl)biphenyl-4-yl]methyl}-6-butyl-2-methyl-3-[5-(trifluoromethyl)pyridin-2-yl]pyrimidin-4(3H)-one], the EC50 in test [1] (COS7 cells, read-out: EC50) amounted to 1.3 µM. The Emax in test [1] (COS7 cells) was 48.6%. Further, the “maximum activity compared with telmisartan” value in test [1] is on record as “the same or greater than that of telmisartan”. In test [2], 0.981 µM corresponded to half-maximal inhibition (IC50).
On to `CCCCc1nc(C)n(-c2ncc(OCCC)cn2)c(=O)c1Cc1ccc(-c2ccccc2-c2nnn[nH]2)cc1` [Example 22, 5-{[2′-(1H-tetrazol-5-yl)biphenyl-4-yl]methyl}-6-butyl-2-methyl-3-(5-propoxypyrimidin-2-yl)pyrimidin-4 (3H)-one], for which, in test [1] (COS7 cells, read-out: EC50), the EC50 is 0.59 µM. The Emax in test [1] (COS7 cells) came to 22.8%. Moreover, half-maximal inhibition in test [2] (IC50) was put at 0.155 µM.
For `CCCCc1nc(C)n(-c2ccc(C)cn2)c(=O)c1Cc1ccc(-c2ccccc2-c2nnn[nH]2)cc1` [Example 2, 5-{[2′-(1H-tetrazol-5-yl)biphenyl-4-yl]methyl}-6-butyl-2-methyl-3-(5-methylpyridin-2-yl)pyrimidin-4(3H)-one], in that order: 4.15 µM, 24.1% and 0.084 µM.
Regarding `CCCCc1nc(C)n(-c2nc3ccccc3s2)c(=O)c1Cc1ccc(-c2ccccc2-c2nnn[nH]2)cc1` [Example 70, 5-{[2′-(1H-tetrazol-5-yl)biphenyl-4-yl]methyl}-3-(benzothiazol-2-v1)-6-butyl-2-methylpyrimidin-4 (3H)-one], the EC50 in test [1] (COS7 cells, read-out: EC50) worked out at 0.69 µM. The Emax in test [1] (COS7 cells) was 39.7%. Also, the “maximum activity compared with telmisartan” value in test [1] is “the same or greater than that of telmisartan”.
As to `CCCCc1nc(C)n(-c2cc(OC)nc(OC)n2)c(=O)c1Cc1ccc(-c2ccccc2-c2nnn[nH]2)cc1` [Example 59], the EC50 in test [1] (COS7 cells, read-out: EC50) turned out to be 1.24 µM. In test [2], this molecule came in with an IC50 of 0.013 µM.
For `CCCCc1nc(C)n(-c2ncc(OC(C)C)cn2)c(=O)c1Cc1ccc(-c2ccccc2-c2nnn[nH]2)cc1` [Example 23, 5-{[2′-(1H-tetrazol-5-yl)biphenyl-4-yl]methyl}-6-butyl-3-(5-isopropoxypyrimidin-2-yl)-2-methylpyrimidin-4 (3H)-one], in that order: 0.89 µM and 0.022 µM.
For `CCCc1nc2c(C)cc(-c3nc4ccccc4n3C)cc2n1Cc1ccc(-c2ccccc2C(=O)O)cc1` [telmisartan, reference compound], the Emax in test [1] (COS7 cells) fell in the range of 30 to 50%. In test [1] (EC50, COS7 cells), this molecule displayed an EC50 of 1 to 5 µM.
Turning to `CCCCc1nc(C)n(-c2ncc(OC3CCC(=O)CC3)cn2)c(=O)c1Cc1ccc(-c2ccccc2-c2nnn[nH]2)cc1` [Example 29, 5-{[2′-(1H-tetrazol-5-yl)biphenyl-4-yl]methyl}-6-butyl-2-methyl-3-[5-(4-oxocyclohexyloxy)pyrimidin-2-yl]pyrimidin-4 (3H)-one], the IC50 in test [2] was 0.0077 µM.
Same read-out and setting: in the case of `CCCCc1nc(C)n(-c2ncc(OCCCCC(N)=O)cn2)c(=O)c1Cc1ccc(-c2ccccc2-c2nnn[nH]2)cc1` [Example 53, 5-{2-{5-{[2′-(1H-tetrazol-5-yl)biphenyl-4-yl]methyl}-4-butyl-2-methyl-6-oxopyrimidin-1(6H)-yl}pyrimidin-5-yloxy}pentanamide] it was 0.0085 µM; in that of `CCCCc1nc(C)n(-c2ncc(OCC(=O)OCC)cn2)c(=O)c1Cc1ccc(-c2ccccc2-c2nnn[nH]2)cc1` [Example 37], 0.0252 µM; in that of `CCCCc1nc(C)n(-c2ncc(OC(Cc3ccccc3)C(=O)O)cn2)c(=O)c1Cc1ccc(-c2ccccc2-c2nnn[nH]2)cc1` (centres unmarked) [Example 43, 2-{2-{5-{[2′-(1H-tetrazol-5-yl)biphenyl-4-yl]methyl}-4-butyl-2-methyl-6-oxopyrimidin-1(6H)-yl}pyrimidin-5-yloxy}-3-phenylpropionic acid], 0.0055 µM.
Still for that read-out and setting: in the case of `CCCCc1nc(C)n(-c2ncccn2)c(=O)c1Cc1ccc(-c2ccccc2-c2nnn[nH]2)cc1` [Example 17, 5-{[2′-(1H-tetrazol-5-yl)biphenyl-4-yl]methyl}-6-butyl-2-methyl-3-(pyrimidin-2-yl)pyrimidin-4 (3H)-one] it was 0.0092 µM; in that of `CCCCc1nc(C)n(-c2ncc(OCc3nc(-c4ccc5ccccc5c4)oc3C)cn2)c(=O)c1Cc1ccc(-c2ccccc2-c2nnn[nH]2)cc1` [Example 34, 5-{[2′-(1H-tetrazol-5-yl)biphenyl-4-yl]methyl}-6-butyl-2-methyl-3-{5-{[5-methyl-2-(naphthalen-2-yl)oxazol-4-yl]methoxy}pyrimidin-2-yl}-pyrimidin-4 (3H)-one], 0.754 µM; in that of `CCCCc1nc(C)n(-c2cnccn2)c(=O)c1Cc1ccc(-c2ccccc2-c2nnn[nH]2)cc1` [Example 60, 5-{[2′-(1H-tetrazol-5-yl)biphenyl-4-yl]methyl}-6-butyl-2-methyl-3-(pyrazin-2-yl)pyrimidin-4 (3H)-one], 0.0081 µM.
The same measure, in the same setting: in the case of `CCCCc1nc(C)n(-c2ncc(OCc3nc(-c4ccccc4)oc3C)cn2)c(=O)c1Cc1ccc(-c2ccccc2-c2nnn[nH]2)cc1` [Example 31] it was 0.338 µM; in that of `CCCCc1nc(C)n(-c2ncc(OCCCC(=O)NC)cn2)c(=O)c1Cc1ccc(-c2ccccc2-c2nnn[nH]2)cc1` [Example 48, 4-{2-{5-{[2′-(1H-tetrazol-5-yl)biphenyl-4-yl]methyl}-4-butyl-2-methyl-6-oxopyrimidin-1(6H)-yl}pyrimidin-5-yloxy}-N-methylbutanamide], 0.0099 µM; in that of `CCCCc1nc(C)n(-c2ncc(OCCCC(=O)NCCC)cn2)c(=O)c1Cc1ccc(-c2ccccc2-c2nnn[nH]2)cc1` [Example 50, 4-{2-{5-{[2′-(1H-tetrazol-5-yl)biphenyl-4-yl]methyl}-4-butyl-2-methyl-6-oxopyrimidin-1(6H)-yl}pyrimidin-5-yloxy}-N-propylbutanamide], 0.014 µM.
Turning to `CCCCc1nc(C)n(-c2ncccc2C(F)(F)F)c(=O)c1Cc1ccc(-c2ccccc2-c2nnn[nH]2)cc1` [Example 9, 5-{[2′-(1H-tetrazol-5-yl)biphenyl-4-yl]methyl}-6-butyl-2-methyl-3-[3-(trifluoromethyl)pyridin-2-yl]pyrimidin-4(3H)-one], in test [2], the IC50 came out at 0.014 µM.

The values above are taken from patent US8664226B2, “Compound having 3-heteroarylpyrimidin-4-(3H)-one structure and pharmaceutical preparation containing same” (Kowa Company, Ltd., priority 2009, dated 2014).
